In PubChem BioAssay (NCI) one finds GI50 and TGI data, which are given here for nine compounds.

Values joined by “and” are separate entries in the source; they are usually repeats but may differ in a detail not shown here. Equal values may be shown once.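 Exposure lasted 48 hours, with cells grown in 96-well plates and compounds tested at five concentrations. Abbreviation: GI50, concentration required for 50% inhibition of growth. TGI: concentration producing complete growth inhibition.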 Some results are limits rather than exact numbers.

Experiment in all cases: NCI-60 cell line screen, 48 h
Experiment [1] concerns MALME-3M melanoma.
For experiment [2], the system named is RPMI-8226 leukemia.
Experiment [3] has as its system MCF7 breast.
The test system of experiment [4] is 786-0 renal.
Experiment [5] has as its system LOX IMVI melanoma.
Experiment [6] has as its system COLO 205 colon.
Experiment [7] has as its system PC-3 prostate.
The subject of experiment [8] is SK-OV-3 ovarian.
Experiment [9] relates to SW-620 colon.
The subject of experiment [10] is OVCAR-4 ovarian.

In the case of `CSc1nc2nc3c(nc2c(=O)n1C)C(=O)c1ccccc1C3=O`, the GI50 was 0.0406 µM in experiment [1]; 0.255 µM in experiment [2]; 0.162 µM in [3]; 0.402 µM in experiment [4]; 0.128 µM in experiment [5]; 0.173 µM in experiment [6]. In addition, the values for the GI50 in [7], in experiment [8] and in experiment [9] were 0.269 µM, 0.774 µM and 0.252 µM, respectively. Besides, the TGI in experiment [1] came to 0.166 µM; in experiment [2], 1.02 µM; in experiment [3] it was 0.384 µM; in [4], 1.46 µM; in [5] it was 0.315 µM; in experiment [6], 0.357 µM. The figures for the TGI in experiment [7], in [8] and in experiment [9] were 1.46 µM, 2.04 µM and 0.738 µM, respectively.
In the case of `COc1cc(/C=C/c2ccc(O)c(OC)c2)cc(OC)c1`, the TGI in [1], in experiment [2], in experiment [3], in experiment [4], in experiment [10] and in [6] was > 100 µM in each case. In addition, the results for the TGI in experiment [7], in [8] and in [9] were 46.8 µM, 76.9 µM and > 100 µM, respectively.
For the compound `CCCOC(=O)c1c(C)n(C)c2scc[n+]12`, the GI50 in experiment [1] was > 100 µM; in experiment [3], 31.2 µM; in [4] it was 80.1 µM; in [10], 37.1 µM; in experiment [5] it was 89.7 µM; in experiment [6], 17.8 µM. In addition, the GI50 in experiment [7] is 54.1 µM; in experiment [8] it was 49.6 µM; in [9] it was 67.4 µM. Moreover, the TGI is > 100 µM in [1]; > 100 µM in experiment [3]; > 100 µM in experiment [4]; > 100 µM in experiment [10]; > 100 µM in experiment [5]; 46.8 µM in experiment [6]. The TGI in [7], in [8] and in experiment [9] was > 100 µM in each case.
On to `CN(C)CC1CC/C(=C\c2ccc3c(c2)OCO3)C1=O` (stereo not given), for which the TGI in experiment [1] came out at 18.3 µM; in experiment [3], 19.8 µM; in [4], 13 µM; in experiment [10] it was 18.9 µM; in [5], 3.72 µM; in experiment [6], 18 µM. Besides, the TGI in experiment [7] was 27.1 µM; in experiment [8], > 57 µM; in experiment [9], 14.4 µM.
Take `CCCCCC(O)C(O)CCC[C@H](O)[C@H]1CC[C@H]([C@H]2CC[C@H]([C@H](O)CCCCCCCCCCCCC3=C[C@H](C)OC3=O)O2)O1` (stereo not given in full): the TGI in experiment [1] is 29.8 µM; in [2], 4.51 µM; in experiment [3], 31.4 µM; in [4], 30.8 µM; in experiment [10] it was 24.1 µM; in experiment [5], 2.93 µM and 14.4 µM. In addition, the TGI in experiment [6] is 14.2 µM; in experiment [7], 25.4 µM; in [9], > 100 µM. For the same compound, the GI50 was 3.78 µM in experiment [3]; 11.1 µM in [4]; 1.76 µM in [5]; 9.15 µM in experiment [7]; 7.51 µM in experiment [9].
`CCCCCCSSC(=S)N(CC)CC`: the GI50 was 23 µM in [1]; 18.8 µM in [2]; 13.9 µM in experiment [3]; 20.4 µM in experiment [4]; 15.1 µM in experiment [10]; 15.3 µM in experiment [5]. Besides, the GI50 in experiment [7] was 20.5 µM; in experiment [8], 28.6 µM; in experiment [9], 18.5 µM. In addition, the TGI in experiment [1] was 60.4 µM; in experiment [2], > 100 µM; in experiment [3] it was 30.8 µM; in [4], 39.4 µM; in experiment [10], 28.8 µM; in experiment [5], 33.1 µM. For the same compound, the values for the TGI in experiment [7], in experiment [8] and in [9] were 57.6 µM, 71.1 µM and 39.6 µM, respectively.
Turning to `CCCCCCCCCCCCC(O)c1ccco1` (stereo not given), the GI50 in [2] is 21 µM; in [3], 29.4 µM; in experiment [4], 19.7 µM; in experiment [10], 29.7 µM; in [5], 17.9 µM; in experiment [6] it was 36.6 µM. In addition, the GI50 in experiment [7] is 16.9 µM; in experiment [8], 22.5 µM; in experiment [9], 16.7 µM. Besides, the TGI is 49.2 µM in [2]; > 100 µM in experiment [3]; 36.6 µM in experiment [4]; 78.3 µM in experiment [10]; 32.2 µM in [5]; > 100 µM in experiment [6]. Further, the figures for the TGI in experiment [7], in experiment [8] and in experiment [9] were 30.7 µM, 44.7 µM and 32 µM, respectively.
Turning to `c1ccc(OCCC[P+](c2ccccc2)(c2ccccc2)c2ccccc2)cc1`, the GI50 in experiment [2] was 0.303 µM; in [3], 0.677 µM; in experiment [4] it was 4.14 µM; in experiment [10], 0.486 µM; in experiment [5] it was 2.18 µM; in experiment [6], 0.97 µM. In addition, the GI50 was 0.58 µM in [7], 4.11 µM in experiment [8] and 2.22 µM in experiment [9]. The TGI in experiment [2] turned out to be 3.66 µM; in experiment [3], 10.3 µM; in [4], 20 µM; in experiment [10], 17.7 µM; in experiment [5] it was 6.75 µM; in [6] it was 3.47 µM. Also, the figures for the TGI in [7], in experiment [8] and in [9] were 6.17 µM, 32.4 µM and > 100 µM, respectively.
Regarding `[N-]=[N+]=NCCCn1c2c(c3ccc([N+](=O)[O-])cc3c1=O)C(=O)c1cc(Br)ccc1-2`, the GI50 in [1] is > 100 µM; in experiment [2] it was > 100 µM; in [3] it was 8.15 µM; in [4], 42.4 µM; in experiment [10] it was > 100 µM; in experiment [5] it was > 100 µM. For the same compound, the GI50 in experiment [6], in [7] and in experiment [8] was > 100 µM in each case. Also, the TGI in [1], in [2], in [3], in experiment [4], in [10] and in experiment [5] was > 100 µM in each case. In addition, the TGI in [6], in [7] and in experiment [8] was > 100 µM in each case.
